Values quoted from earlier work as cited in US6963011B2, “N-(2-phenyl-3-aminopropyl)naphthamides” (Astrazeneca AB, priority 2000, dated 2005).
Like-named read-outs stand apart in the source and are kept apart here. Non-standard residues stand in square brackets, D forms with d. Residues, ends and D or L forms follow the SMILES beside them. *: point of attachment. Cyclohexanecarbonyl = O=C(C1CCCCC1)*

What was measured:
[1] = not given; remark: listed apart in the source
[2] = Vassout et al., Neuropeptides 26/S1:38, 1994; only at 30 mg/kg bid
[3] = not given; remark: listed apart in the source
[4] = Walsh et al., Psychopharmacology 121:186-191, 1995
[5] = Vassout et al., Neuropeptides 26/S1:38, 1994
[6] = Teixeira et al., Eur J Pharmacol 311(1):7-14, 1996
[7] = Stratton et al., Eur. J. Pharmacol. 250:R11-12, 1993
[8] = Walsh et al., Psychopharmacology 121:186-191, 1995

| Compound | Outcome, Elevated plus-maze [6] | Outcome, Light-dark box [3, 7] | Outcome, Light-dark box [3, 8] | Outcome, Marmoset human intruder [4] | further results |
| --- | --- | --- | --- | --- | --- |
| Cc1cc(C)cc(C(=O)N2CC[C@H](NCc3ccnc4ccccc34)C[C@H]2Cc2ccccc2)c1 [CGP 49823] | – | – | – | – | Outcome, Elevated plus-maze [5]: inactive; Outcome, Social interaction ([1]; File, Pharm Bio B 58(3):747-752, 1997): anxiolytic; Outcome, Social interaction test [1, 5]: anxiolytic; Outcome, Forced swim test (depression model) [2]: antidepressant |
| CN(Cc1ccccc1)C(=O)[C@H](Cc1ccc2ccccc2c1)NC(=O)[C@@H]1C[C@@H](O)CN1C(=O)c1cn(C)c2ccccc12 [FK888] | anxiolytic | – | – | – | – |
| C[C@H](NC(=O)CNC(=O)C1CCCCC1)C(=O)N[C@H](Cc1c[nH]c2ccccc12)C(=O)N[C@@H](Cc1ccccc1)C(=O)N(C)C [GR100679] (Cyclohexanecarbonyl-GA[dW]F-NMe2) | – | anxiolytic | – | – | – |
| COC1(C[S@@+]([O-])c2ccccc2)CCN(CCc2c[nH]c3ccc(F)cc23)CC1 [GR159897] | – | – | anxiolytic | anxiolytic | – |
| CC(=O)NC1(c2ccccc2)CCN(CC[C@H](CN(C)C(=O)c2ccccc2)c2ccc(Cl)c(Cl)c2)CC1 [SR48968] | anxiolytic | anxiolytic | anxiolytic | anxiolytic | – |
